{
  "source": "patent US20070202090A1",
  "about": "“Water Soluble Form Of Coenzyme Q10 In The Form Of An Inclusion Complex With Beta-Cyclodextrin, Process Of Preparing, And Use Thereof” (priority 2004, published 2007)",
  "key": {"[1]": {"assay": "Comparison of milk-solubility of CoQ10 and CDQ10 (saturation, HPLC)", "format": "physicochemical", "details": "fresh milk 3.5% milk fat, room temperature, addition till saturation, filtrate", "method": "β-Cyclodextrin (1.575 g, 1.39 mmole) was dissolved in 13 mL of distilled water at 60-70° C. Then 1.00 g (1.16 mmole) of CoQ10 were added to the dissolved β-cyclodextrin, and the mixture was stirred for 20 minutes at 60-70° C. After stirring for some minutes the CDQ10 complex started to precipitate. The reaction mixture was kept stirring for about 8 hours at 60-70° C., and about 2 hours at room temperature, till the formation of a homogenous paste. Then the obtained mixture was under stirring at room temperature added to fresh milk containing 3.5% of milk fat (Ljubljanske mlekarne) till saturation. Into another milk aliquot was added under identical conditions CoQ10 till saturation. […]"}, "[2]": {"assay": "Dissolution of CoQ10 in dairy products and orange juice", "format": "physicochemical", "details": "about 35-37 mg CoQ10 in about 200 g product", "method": "β-Cyclodextrin (7.90 g, 6.95 mmole) was dissolved in distilled water (68 mL) at 65-70° C., and under stirring was added CoQ10 (5.00 g, 5.79 mmole). After about 30 minutes the CDQ10 complex precipitated. The reaction mixture was kept stirring for about 10 hours at 70° C., and 10 hours at room temperature, till the formation of an intensive yellow coloured paste. Then equal aliquots (each 500 μL containing about 37 mg of CoQ10 in the form of CDQ10) of the obtained mixture were admixed to about 200 g each: milk (3.5% of milk fat, Ljubljanske miekarne), liquid yoghurt (1.3% of milk fat, Ljubljanske miekarne), fruit yoghurt (peach, Ljubljanske miekarne) and orange juice (100%, Rauch). The obtained preparations were organoleptically compared with non-lemented supplemented milk, liquid yoghurt, fruit yoghurt and orange juice, as well as with those supplemented each with about 35-37 mg CoQ10. As CoQ10 was not dissolved in said products, they were not included in the tests. The tests were performed by 10-21 randomly chosen consumers."}},
  "data": [
    {"smiles": "COC1=C(OC)C(=O)C(C/C=C(\\C)CC/C=C(\\C)CC/C=C(\\C)CC/C=C(\\C)CC/C=C(\\C)CC/C=C(\\C)CC/C=C(\\C)CC/C=C(\\C)CC/C=C(\\C)CCC=C(C)C)=C(C)C1=O", "note": "[CoQ10, coenzyme Q10]", "values": [
      {"measurement": "Concentration of CoQ10 in milk", "setting": "[1]", "value": 3.2, "unit": "µg/g"},
      {"measurement": "dissolution in milk, liquid yoghurt, fruit yoghurt and orange juice", "setting": "[2]", "value": "not dissolved"}
    ]}
  ]
}
